Source: patent publication US7863274B2, “Deuterium enriched analogues of tadalafil as PDE5 inhibitors” (Concert Pharmaceuticals Inc., priority 2005, dated 2011)

Columns and labels:
[1] = humans, cited from earlier work
[2] = system: spontaneously hypertensive rats; assay: Hypotensive effects in the spontaneous hypertensive rat model (Cerep); type: in vivo; conditions: oral administration, 10 mg/kg, 8 rats per group, over 8 h
Procedure: Hypotensive effects in the spontaneous hypertensive rat model. Effects of the products of examples 7, 9, 12, 18, 27 and 30 are tested by oral administration to spontaneously hypertensive rats at Cerep, using essentially the procedure of Bazil M K et. al., J. Cardiovasc. Pharmacol. 1993 22: 897 and a sample size of 8 rats per group.

Row | Compound | reduction in blood pressure [2] | other results
1 | CN1CC(=O)N2[C@H](c3ccc4c(c3)OCO4)c3[nH]c4ccccc4c3C[C@@H]2C1=O [Compound 1, (6R,12aR)-6-(1,3-benzodioxol-5-yl)-2-methyl-1,2,3,4,6,7,12,12a-octahydropyrazino[1′,2′:1,6]pyrido[3,4-b]indole-1,4-dione] | – | half-life and exposure (AUC) when dosed concurrently with CYP3A4 inhibitors ([1]; co-dosing with inhibitors of CYP3A4): clinically meaningful increases; absorption following oral administration ([1]; oral): well absorbed; amount excreted unchanged ([1]; oral): only a minor amount
2 | CN1CC(=O)N2[C@H](c3ccc4c(c3)OC(F)(F)O4)c3[nH]c4ccccc4c3C[C@@H]2C1=O [Example 18, (6R,12aR)-6-(2,2-Difluorobenzo[d]-1,3-dioxol-5-yl)-1,2,3,4,6,7,12,12a-octahydropyrazino[1′,2′:1,6]pyrido[3,4-b]indole-2-methyl-1,4-dione] | significant reductions in blood pressure sustained over 8 h | –
3 | [2H]C1([2H])Oc2ccc([C@@H]3c4[nH]c5ccccc5c4C[C@@H]4C(=O)N(C([2H])([2H])[2H])CC(=O)N34)cc2O1 [Example 30, (6R,12aR)-6-(2,2-dideuterobenzo[d]-1,3-dioxol-5-yl)-1,2,3,4,6,7,12,12a-octahydropyrazino[1′,2′:1,6]pyrido[3,4-b]indole-2-trideuteromethyl-1,4-dione] | significant reductions in blood pressure sustained over 8 h | –
4 | [2H]C([2H])([2H])N1CC(=O)N2[C@H](c3ccc4c(c3)OC(F)(F)O4)c3[nH]c4ccccc4c3C[C@@H]2C1=O [Example 7, (6R,12aR)-6-(2,2-Difluorobenzo[d]-1,3-dioxol-5-yl)-1,2,3,4,6,7,12,12a-octahydropyrazino[1′,2′:1,6]pyrido[3,4-b]indole-2-trideuteromethyl-1,4-dione] | significant reductions in blood pressure sustained over 8 h | –
5 | [2H]c1cc2c(cc1[C@@H]1c3[nH]c4ccccc4c3C[C@@H]3C(=O)N(C)CC(=O)N13)OC(F)(F)O2 [Example 9, (6R,12aR)-6-(6-Deutero-2,2-difluorobenzo[d]-1,3-dioxol-5-yl)-2-methyl-1,2,3,4,6,7,12,12a-octahydropyrazino[1′,2′:1,6]pyrido[3,4-b]indole-1,4-dione] | significant reductions in blood pressure sustained over 8 h | –
6 | [2H]C1([2H])Oc2ccc([C@@H]3c4[nH]c5ccccc5c4C[C@@H]4C(=O)N(C)CC(=O)N34)cc2O1 [Example 27, (6R,12aR)-6-(2,2-dideuterobenzo[d]-1,3-dioxol-5-yl)-2-methyl-1,2,3,4,6,7,12,12a-octahydropyrazino[1′,2′:1,6]pyrido[3,4-b]indole-1,4-dione] | significant reductions in blood pressure sustained over 8 h | –
7 | [2H][C@@]1(c2ccc3c(c2)OC(F)(F)O3)c2[nH]c3ccccc3c2C[C@@H]2C(=O)N(C)CC(=O)N21 [Example 12, (6R,12aR)-6-Deutero-6-(2,2-difluorobenzo[d]-1,3-dioxol-5-yl)2-methyl-1,2,3,4,6,7,12,12a-octahydropyrazino[1′,2′:1,6]pyrido[3,4-b]indole-1,4-dione] | significant reductions in blood pressure sustained over 8 h | –
